Experimental data from ChEMBL document CHEMBL4825697, “Optimization and SAR research at the piperazine and phenyl rings of JNJ4796 as new anti-influenza A virus agents, part 1” (Eur J Med Chem, 2021).

How the values were obtained:
[1] = Cytotoxicity against dog MDCK cells assessed as reduction in cell viability; assay type: cell-based, Canis lupus familiaris
Influenza A virus = assay: Antiviral activity against Influenza A virus (H1N1) infected in dog MDCK cells assessed as inhibition of surface glycoprotein hemagglutinin; assay type: functional, organism-based
[2] = Tmax in Balb/c mouse at 25 mg/kg, po administered as single dose; assay type: ADME, organism-based; conditions: in vivo
[3] = Half life in Balb/c mouse at 25 mg/kg, po administered as single dose; assay type: ADME, organism-based; conditions: in vivo
[4] = AUC (0 to infinity) in Balb/c mouse at 25 mg/kg, po administered as single dose; assay type: ADME, organism-based; design: time infinity, route oral, dose 25 mg/kg; conditions: in vivo
[5] = Cmax in Balb/c mouse at 25 mg/kg, po administered as single dose; assay type: ADME, organism-based; design: route oral, dose 25 mg/kg; conditions: in vivo
hERG (KCNH2) = hERG (KCNH2) (Homo sapiens, UniProt Q12809); assay: Inhibition of human ERG at 10 uM
Chain of hERG (KCNH2) (Q12809 whole entry): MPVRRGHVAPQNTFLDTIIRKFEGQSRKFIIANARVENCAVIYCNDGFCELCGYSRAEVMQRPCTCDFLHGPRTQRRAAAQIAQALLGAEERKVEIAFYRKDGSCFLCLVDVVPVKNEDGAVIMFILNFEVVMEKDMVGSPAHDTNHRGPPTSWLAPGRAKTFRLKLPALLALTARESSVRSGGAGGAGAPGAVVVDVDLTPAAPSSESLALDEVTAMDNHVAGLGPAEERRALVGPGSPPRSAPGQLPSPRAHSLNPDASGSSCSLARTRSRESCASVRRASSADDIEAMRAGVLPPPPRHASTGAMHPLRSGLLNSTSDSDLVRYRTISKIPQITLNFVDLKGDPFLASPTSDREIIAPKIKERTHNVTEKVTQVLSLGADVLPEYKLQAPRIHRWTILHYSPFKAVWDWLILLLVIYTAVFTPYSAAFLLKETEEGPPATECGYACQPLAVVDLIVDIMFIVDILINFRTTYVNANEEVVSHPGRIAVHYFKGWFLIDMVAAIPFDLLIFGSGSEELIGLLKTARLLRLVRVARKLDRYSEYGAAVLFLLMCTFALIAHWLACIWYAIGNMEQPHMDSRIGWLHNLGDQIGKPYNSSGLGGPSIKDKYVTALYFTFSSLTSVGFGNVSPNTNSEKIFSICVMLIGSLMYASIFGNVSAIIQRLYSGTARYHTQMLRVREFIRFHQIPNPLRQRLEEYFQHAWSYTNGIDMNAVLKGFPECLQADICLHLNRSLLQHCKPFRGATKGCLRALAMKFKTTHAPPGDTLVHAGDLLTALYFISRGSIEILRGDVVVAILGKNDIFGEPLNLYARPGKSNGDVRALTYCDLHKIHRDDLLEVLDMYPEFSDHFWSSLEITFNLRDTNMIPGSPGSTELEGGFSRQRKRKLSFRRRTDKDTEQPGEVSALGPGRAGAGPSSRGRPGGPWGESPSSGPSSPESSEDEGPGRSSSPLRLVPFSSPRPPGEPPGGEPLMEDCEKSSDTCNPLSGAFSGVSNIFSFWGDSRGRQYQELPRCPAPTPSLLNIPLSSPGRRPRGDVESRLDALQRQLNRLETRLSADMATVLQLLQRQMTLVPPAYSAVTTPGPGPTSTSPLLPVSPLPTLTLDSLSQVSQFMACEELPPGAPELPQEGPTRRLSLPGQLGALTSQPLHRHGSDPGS

[6] = Selectivity index, ratio of CC50 for cytotoxicity against dog MDCK cells to IC50 for antiviral activity against Influenza A virus […] infected in dog MDCK cells; assay type: toxicity, cell-based; conditions: read-out: Selectivity Index

## CC(=O)Nc1ccc2oc(-c3ccnc(C(=O)N4CCC5(CC4)CCN(C(c4ccccc4)c4nnn(C)n4)CC5)c3)nc2c1 (stereo not drawn)
[1]
  CC50: > 50 µM
Influenza A virus
  IC50: > 50 µM

## CC(=O)Nc1ccc2oc(-c3ccnc(C(=O)N4CCN(C(c5ccccc5)c5nnn(C)n5)CC4)c3)nc2c1 (racemic)
[2]
  Tmax: 0.25 h
[3]
  half-life: 3.69 h
[4]
  AUC(0-inf): 1210 ng·h/mL
[5]
  Cmax: 572 ng/mL
[1]
  CC50: > 50 µM
hERG (KCNH2)
  inhibition at 10 µM: 53.8%
Influenza A virus
  IC50: 0.35 µM

## CC(=O)Nc1ccc2oc(-c3ccnc(C(=O)N4CCN(C(c5ccc(OC(F)(F)F)cc5)c5nnn(C)n5)CC4)c3)nc2c1 (stereo not drawn)
[1]
  CC50: > 50 µM
Influenza A virus
  IC50: 3.18 µM

## CC(=O)Nc1ccc2oc(-c3ccnc(C(=O)N4CCN(C(c5ccc(Br)cc5)c5nnn(C)n5)CC4)c3)nc2c1 (stereo not drawn)
[1]
  CC50: > 50 µM
Influenza A virus
  IC50: 1.43 µM

## CC(=O)Nc1ccc2oc(-c3ccnc(C(=O)N4CC5CC4CN5C(c4ccccc4)c4nnn(C)n4)c3)nc2c1 (stereo not drawn)
[1]
  CC50: > 50 µM
Influenza A virus
  IC50: 18.5 µM

## CC(=O)Nc1ccc2oc(-c3ccnc(C(=O)N4CCN([C@H](c5ccc(F)cc5)c5nnn(C)n5)CC4)c3)nc2c1
[2]
  Tmax: 0.33 h
[3]
  half-life: 5.84 h
[4]
  AUC(0-inf): 1910 ng·h/mL
[5]
  Cmax: 866 ng/mL
[1]
  CC50: > 200 µM
hERG (KCNH2)
  inhibition at 10 µM: 13.2%
Influenza A virus
  IC50: 0.03 µM
[6]
  selectivity ratio: > 6670

## CC(=O)Nc1ccc2oc(-c3ccnc(C(=O)N4CCN(C(c5cccc(F)c5)c5nnn(C)n5)CC4)c3)nc2c1 (stereo not drawn)
[1]
  CC50: > 50 µM
Influenza A virus
  IC50: 2.47 µM

## CC(=O)Nc1ccc2oc(-c3ccnc(C(=O)N4CCN(C(c5ccc(Cl)cc5)c5nnn(C)n5)CC4)c3)nc2c1 (stereo not drawn)
[1]
  CC50: > 50 µM
Influenza A virus
  IC50: 1.71 µM

## COc1ccc(C(c2nnn(C)n2)N2CCN(C(=O)c3cc(-c4nc5cc(NC(C)=O)ccc5o4)ccn3)CC2)cc1 (stereo not drawn)
[1]
  CC50: > 50 µM
Influenza A virus
  IC50: 12 µM

## CC(=O)Nc1ccc2oc(-c3ccnc(C(=O)N4CCN(C(c5ccc(C(F)(F)F)cc5)c5nnn(C)n5)CC4)c3)nc2c1 (stereo not drawn)
[1]
  CC50: > 50 µM
Influenza A virus
  IC50: 12.8 µM

## CC(=O)Nc1ccc2oc(-c3ccnc(C(=O)N4CCN(C(c5ccc(C)cc5)c5nnn(C)n5)CC4)c3)nc2c1 (stereo not drawn)
[1]
  CC50: > 50 µM
Influenza A virus
  IC50: 4.28 µM

## CC(=O)Nc1ccc2oc(-c3ccnc(C(=O)N4CC5(CCN(C(c6ccccc6)c6nnn(C)n6)CC5)C4)c3)nc2c1 (stereo not drawn)
[1]
  CC50: 32 µM
Influenza A virus
  IC50: 7.41 µM

## NC(=O)c1ncn([C@@H]2O[C@H](CO)[C@@H](O)[C@H]2O)n1 [RIBAVIRIN]
[1]
  CC50: > 200 µM
Influenza A virus
  IC50: 4.28 µM
[6]
  selectivity ratio: > 46

## CC(=O)Nc1ccc2oc(-c3ccnc(C(=O)N4CCN(C(c5nnn(C)n5)c5ccccc5F)CC4)c3)nc2c1 (stereo not drawn)
[1]
  CC50: > 50 µM
Influenza A virus
  IC50: 7.41 µM

## CC(=O)Nc1ccc2oc(-c3ccnc(C(=O)N4CCN(C(c5ccc(F)cc5)c5nnn(C)n5)CC4)c3)nc2c1 (stereo not drawn)
[1]
  CC50: > 50 µM
Influenza A virus
  IC50: 0.27 µM

## CC(=O)Nc1ccc2oc(-c3ccnc(C(=O)N4CCN([C@H](c5ccccc5)c5nnn(C)n5)CC4)c3)nc2c1
[1]
  CC50: 144 µM
Influenza A virus
  IC50: 0.04 µM
[6]
  selectivity ratio: 3590

## CC(=O)Nc1ccc2oc(-c3ccnc(C(=O)N4CCN([C@@H](c5ccccc5)c5nnn(C)n5)CC4)c3)nc2c1
[1]
  CC50: > 200 µM
Influenza A virus
  IC50: 1.9 µM
[6]
  selectivity ratio: > 105

## CC(=O)Nc1ccc2oc(-c3ccnc(C(=O)N4CCN(C(c5ccc([N+](=O)[O-])cc5)c5nnn(C)n5)CC4)c3)nc2c1 (stereo not drawn)
[1]
  CC50: > 50 µM
Influenza A virus
  IC50: 7.41 µM

## CC(=O)Nc1ccc2oc(-c3ccnc(C(=O)N4CCC5(CC4)CN(C(c4ccccc4)c4nnn(C)n4)C5)c3)nc2c1 (stereo not drawn)
[1]
  CC50: > 50 µM
Influenza A virus
  IC50: > 50 µM

## CC(=O)Nc1ccc2oc(-c3ccnc(C(=O)N4CCN([C@@H](c5ccc(F)cc5)c5nnn(C)n5)CC4)c3)nc2c1
[1]
  CC50: > 200 µM
Influenza A virus
  IC50: 5.51 µM
[6]
  selectivity ratio: > 36

## CCOC(=O)C1=C[C@@H](OC(CC)CC)[C@H](NC(C)=O)[C@@H](N)C1 [OSELTAMIVIR]
[1]
  CC50: > 200 µM
Influenza A virus
  IC50: 3.44 µM
[6]
  selectivity ratio: > 58
